Laboratory results published in patent EP3658131B1, “COMPOSITION FOR THE TREATMENT OF BACTERIAL VAGINOSIS” (Farma-Derma S.R.L., priority 2017, dated 2019).

How the values were obtained:
Assay type in all cases: cell-based
[1] = test system: Lactobacillus Acidophilus ATCCC 4356; test: Survival/growth of lactobacilli after incubation with the mixtures (Test 2); settings: 4 hours at 37°C
Description: (§1) 3 different mixtures of substances were prepared whose composition is described below: − MD(5mg) + AL(90%,11mg) [formula] − DQC(8mg) [formula] − DQC(8mg) + MD(5mg) + AL(90%,11mg) [formula]
(§2) To evaluate the antibacterial efficacy of the ingredients in the three compositions described above, the pure raw materials directly dissolved in the culture medium were tested. Aliquots of the 3 mixtures were prepared for each of the bacterial strains being evaluated. Each mixture was placed in a receptacle containing a suitable volume of a peptone water solution with pH 5.5 having a concentration of the bacterial strain equal to at least 10^5 CFU/ml.
(§3) Each container was placed in incubation at 37°C for 4 hours to promote the dissolution and the action of the ingredients. A negative control was prepared for each strain i.e. a solution without the presence of the substances being tested, which is treated in the same experimental conditions as the receptacles containing the mixtures being tested.
(§4) At the end of the incubation period the contents of each container were neutralised and seeded in a suitable culture medium, the micro-organisms that had grown were counted. Each seeding was performed in triplicate.

[2] = test system: Gardnerella vaginalis ATCC 11418 + Lactobacillus Acidophilus ATCCC 4356; test: Survival/growth of lactobacilli in metabolic competition with a pathogenic strain (Test 2); settings: for Reduction in microbial load with respect to the negative control: values only refer to the lactobacilli, negative value = growth
Description: The selectivity of the compostion is verified by evaluating the survival ability of the Lactobacillus Acidophilus in the presence and absence of another bacterial strain in metabolic competition.
as §1, §2, §3, §4

[3] = test system: Prevotella loescheii ATCC 15930; test: Reduction of microbial load after incubation with the mixtures (Test 2); settings: 4 hours at 37°C
Description: as §1, §2, §3, §4

[4] = test system: Gardnerella vaginalis ATCC 11418; test: as above; settings: 4 hours at 37°C
Description: as §1, §2, §3, §4

[5] = test system: Escherichia coli ATCC 8739; test: as above; settings: 4 hours at 37°C
Description: as §1, §2, §3, §4

[6] = test system: Staphylococcus aureus ATCC 6538; test: as above; settings: 4 hours at 37°C
Description: as §1, §2, §3, §4

[7] = peptone water pH 5.5, at least 10^5 CFU/ml, mean of 3 replicates

`Cc1cc(N)c2ccccc2[n+]1CCCCCCCCCC[n+]1c(C)cc(N)c2ccccc21` [DQC, dequalinium chloride] was tested, and the Microbial load [1, 7] was 5,267 CFU/ml, the “Reduction in microbial load with respect to the negative control” value (“Reduction in microbial load” below) ([1]; peptone water pH 5.5, negative value = growth) was 96.18% and the Microbial load ([2]; values only refer to the lactobacilli (selective media), 4 hours at 37°C, pH 5.5, mean of 3 replicates) was 1,400 CFU/ml. The “Reduction in microbial load” value [2] was 60.00%, the “Reduction in microbial load” value ([2]; listed as dequalinium) was 60.00% and the “Reduction in microbial load” value ([3]; peptone water pH 5.5) was 90.56%. For the same compound, the Microbial load [3, 7] was 3,367 CFU/ml, the “Reduction in microbial load” value ([4]; peptone water pH 5.5) was 74.31% and the Microbial load [4, 7] was 4,205 CFU/ml. For the same compound, the “Reduction in microbial load” value ([5]; peptone water pH 5.5) was 50.60%, the Microbial load [5, 7] was 1,037,400 CFU/ml and the “Reduction in microbial load” value ([6]; peptone water pH 5.5) was 60.00%. The Microbial load [6, 7] was 14,267 CFU/ml.
